Where a name gives a salt, the structure may show the parent alone.
Test system: HCT116
Conditions: 72 h
Summary of the method: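 HCT116 cells were seeded at 250 per well in 1536-well plates with 5 h allowed for attachment. CellTiter-Glo luminescence was normalized against vehicle (0%) and positive control (-100%) before pattern correction. The IC50 and maximal efficacy figures derive from four-parameter Hill fits.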

Row | SMILES | IC50 cell viability (ICRF193 0 nM) | IC50 cell viability (ICRF193 200 nM)
1 | CC[C@H]1CN2CC[C@H]1C[C@@H]2[C@@H](O)c1ccnc2ccc(OC)cc12 [Hydroquinidine HCl] | > 45.8 µM | > 45.8 µM
2 | Oc1ccc(O)cc1 [Hydroquinone] | > 45.8 µM | > 45.8 µM
3 | CCN(CCO)CCCC(C)Nc1ccnc2cc(Cl)ccc12 (configuration not stated) [Hydroxychloroquine sulfate] | > 45.8 µM | > 45.8 µM
4 | CC(CC=O)CCCC(C)(C)O (configuration not stated) [Hydroxycitronellal] | > 45.8 µM | > 45.8 µM
5 | N=C(N)c1ccc(/C=C/c2ccc(C(=N)N)cc2O)cc1 [Hydroxystilbamidine bis(methanesulfonate)] | > 45.8 µM | > 45.8 µM
6 | NC(=O)NO [Hydroxyurea] | > 45.8 µM | > 45.8 µM
7 | OCCOCCN1CCN(C(c2ccccc2)c2ccc(Cl)cc2)CC1 (configuration not stated) [Hydroxyzine] | > 45.8 µM | > 45.8 µM
8 | CNC1CC(N)C(O)C(OC2OC(CO)C(O)C3OC4(OC(C(N)CO)C(O)C(O)C4O)OC23)C1O (configuration not stated) [Hygromycin B] | > 45.8 µM | > 45.8 µM
9 | N=C1NC(=O)N2CC12 (configuration not stated) [IMEXON] | > 45.8 µM | > 45.8 µM
10 | O=C(O[C@H]1[C@H](OC(=O)c2cccnc2)[C@@H](OC(=O)c2cccnc2)[C@H](OC(=O)c2cccnc2)[C@@H](OC(=O)c2cccnc2)[C@H]1OC(=O)c1cccnc1)c1cccnc1 [INOSITOL NIACINATE] | > 45.8 µM | > 45.8 µM
11 | CC[C@H]1[C@@H](O)[C@@H]2[C@H](CC[C@]3(C)[C@@H]([C@H](C)CCC(=O)O)CC[C@@H]23)[C@@]2(C)CC[C@@H](O)C[C@@H]12 [INT-747 (Obeticholic acid)] | > 45.8 µM | > 45.8 µM
12 | CN(CC(O)CO)C(=O)c1c(I)c(NC(=O)C(CO)CO)c(I)c(C(=O)N(C)CC(O)CO)c1I (configuration not stated) [IOBITRIDOL] | > 45.8 µM | > 45.8 µM
13 | CC(C)CCCC(C)NC(C)C (configuration not stated) [IPROHEPTINE] | > 45.8 µM | > 45.8 µM
14 | CNCC(=O)OCc1cccnc1N(C)C(=O)OC(C)[n+]1cnn(C[C@](O)(c2cc(F)ccc2F)[C@@H](C)c2nc(-c3ccc(C#N)cc3)cs2)c1 (some centres not stated) [ISAVUCONAZONIUM SULFATE] | > 45.8 µM | > 45.8 µM
15 | CCC(NC(C)C)C(O)c1ccc(O)c(O)c1 (configuration not stated) [ISOETHARINE MESYLATE] | > 45.8 µM | > 45.8 µM
16 | Cc1c(F)cc2c(=O)c(C(=O)O)cn3c2c1CCC3C (configuration not stated) [Ibafloxacine] | > 45.8 µM | > 45.8 µM
17 | CCCCCN(C)CCC(O)(P(=O)(O)O)P(=O)(O)O [Ibandronate sodium hydrate] | > 45.8 µM | > 45.8 µM
18 | O=P1(NCCCl)OCCCN1CCCl (configuration not stated) [Ifomide] | > 45.8 µM | > 45.8 µM
19 | O=[N+]([O-])/N=C1\NCCN1Cc1ccc(Cl)nc1 [Imidacloprid] | > 45.8 µM | > 45.8 µM
20 | O=C(NCNC(=O)NC1C(=O)NC(=O)N1CO)NC1C(=O)NC(=O)N1CO (configuration not stated) [Imidazolidinyl urea] | > 45.8 µM | > 45.8 µM

Results, then the compound that gave them:

Row | IC50 cell viability (ICRF193 0 nM) | IC50 cell viability (ICRF193 200 nM) | SMILES
21 | > 45.8 µM | > 45.8 µM | CC(C)C(=O)c1c(C(C)C)nn2ccccc12 [Ibudilast]
22 | > 45.8 µM | > 45.8 µM | CC(C)Cc1ccc(CC(=O)O)cc1 [Ibufenac]
23 | > 45.8 µM | > 45.8 µM | CC(C)Cc1ccc(C(C)C(=O)O)cc1 (configuration not stated) [Ibuprofen lysine]
24 | > 45.8 µM | > 45.8 µM | CC(C)Cc1ccc(C(C)C(=O)OCc2ccccn2)cc1 (configuration not stated) [Ibuprofen piconol]
25 | > 45.8 µM | > 45.8 µM | CCCCCCCN(CC)CCCC(O)c1ccc(NS(C)(=O)=O)cc1 (configuration not stated) [Ibutilide fumarate]
26 | > 45.8 µM | > 45.8 µM | N=C(N)NCCC[C@@H](N)C(=O)N[C@@H](CCCNC(=N)N)C(=O)N1CCC[C@H]1C(=O)N1C[C@H](O)C[C@H]1C(=O)NCC(=O)N[C@@H](Cc1cccs1)C(=O)N[C@@H](CO)C(=O)N1Cc2ccccc2C[C@@H]1C(=O)N1[C@H](C(=O)N[C@@H](CCCNC(=N)N)C(=O)O)C[C@@H]2CCCC[C@@H]21 [Icatibant]
27 | > 45.8 µM | > 45.8 µM | O=c1[nH]c(=O)n([C@H]2C[C@H](O)[C@@H](CO)O2)cc1I [Idoxuridine]
28 | > 45.8 µM | > 45.8 µM | CC(C(O)c1ccc(O)cc1)N1CCC(Cc2ccccc2)CC1 (configuration not stated) [Ifenprodil]
29 | > 45.8 µM | > 45.8 µM | CS(=O)(=O)Nc1cc2occ(NC=O)c(=O)c2cc1Oc1ccccc1 [Iguratimod]
30 | > 45.8 µM | > 45.8 µM | CC#CCC(C)[C@H](O)/C=C/[C@@H]1[C@H]2C/C(=C/CCCC(=O)O)C[C@H]2C[C@H]1O (some centres not stated) [Iloprost]
31 | > 45.8 µM | > 45.8 µM | Cc1ccc(NC(=O)c2ccc(CN3CCN(C)CC3)cc2)cc1Nc1nccc(-c2cccnc2)n1 [Imatinib]
32 | > 45.8 µM | > 45.8 µM | Cc1nccn1CCC(C(N)=O)(c1ccccc1)c1ccccc1 [Imidafenacin]
33 | > 45.8 µM | > 45.8 µM | CCOC(=O)[C@H](CCc1ccccc1)N[C@@H](C)C(=O)N1C(=O)N(C)C[C@H]1C(=O)O [Imidapril hydrochloride]
34 | > 45.8 µM | > 45.8 µM | O=C(Nc1cccc(C2=NCCN2)c1)Nc1cccc(C2=NCCN2)c1 [Imidocarb dipropionate]
35 | > 45.8 µM | > 45.8 µM | C[C@@H](O)[C@H]1C(=O)N2C(C(=O)O)=C(SCCNC=N)C[C@H]12 [Imipenem]
36 | > 45.8 µM | > 45.8 µM | CC(C)Cn1cnc2c(N)nc3ccccc3c21 [Imiquimod]
37 | > 45.8 µM | > 45.8 µM | CS(=O)(=O)OCCCNCCCOS(C)(=O)=O [Improsulfan tosylate]
38 | > 45.8 µM | > 45.8 µM | CC1Cc2ccccc2N1NC(=O)c1ccc(Cl)c(S(N)(=O)=O)c1 (configuration not stated) [Indapamide]
39 | > 45.8 µM | > 45.8 µM | CC(C)NCCCC1(C(N)=O)c2ccccc2-c2ccccc21 [Indecainide]
40 | > 45.8 µM | > 45.8 µM | O=C1/C(=C2\Nc3ccc(S(=O)(=O)O)cc3C2=O)Nc2ccc(S(=O)(=O)O)cc21 [Indigo carmine]
41 | > 45.8 µM | > 45.8 µM | O=C1/C(=C2\Nc3ccccc3C2=O)Nc2ccccc21 [Indigo]
42 | > 45.8 µM | > 45.8 µM | CC(C)(C)NC(=O)[C@@H]1CN(Cc2cccnc2)CCN1C[C@@H](O)C[C@@H](Cc1ccccc1)C(=O)N[C@H]1c2ccccc2C[C@H]1O [Indinavir sulfate]
43 | > 45.8 µM | > 45.8 µM | c1ccc2[nH]ccc2c1 [Indole]
44 | > 45.8 µM | > 45.8 µM | COc1ccc2c(c1)c(CC(=O)OC/C=C(\C)CC/C=C(\C)CCC=C(C)C)c(C)n2C(=O)c1ccc(Cl)cc1 [Indomethacin farnesil]
45 | > 45.8 µM | > 45.8 µM | COc1ccc2c(c1)c(CC(=O)O)c(C)n2C(=O)c1ccc(Cl)cc1 [Indomethacin]
46 | > 45.8 µM | > 45.8 µM | O=C(NC1CCN(CCc2c[nH]c3ccccc23)CC1)c1ccccc1 [Indoramin hydrochloride]

From the supplement of paper PMC12137928
